According to patent publication US20020028938A1, “Prostaglandin endoperoxide H synthase biosynthesis inhibitors” (priority 1997, published 2002):

Key:
[1] = test system: prostaglandin biosynthesis in vivo (pleural lavage eicosanoids); test: Rat carrageenan pleural inflammation (CIP) model; conditions: for inhibition in vivo at 10 mg/kg: 4 h, read-out: CIP % Inhib. @ 10 mpk; for inhibition in vivo at 10 mg/kg / CIP % Inhib. @ 10 mpk: 10 mpk oral
Experimental: (§1) For oral administration, test compounds were suspended on the day of use in 100% polyethyleneglycol (PEG 400) with a motorized homogenizer equipped with a Teflon-coated pestle (TRI-R Instrument, Jamaica, N.Y.).
(§2) To compare the mean responses of the treatment groups, analysis of variance was applied. Percent inhibition values were determined by comparing the individual treatment mean values to the mean of the control group. Linear regression was used to estimate IC50's/ED50's in appropriate assays.
Pleural inflammation was induced in male adrenalectomized Sprague-Dawley rats following the method of Vinegar et al., Fed. Proc. 1976, 35, 2447-2456. Animals were orally dosed with experimental compounds, 30 minutes prior to the intrapleural injection of 2% lambda carrageenan (Sigma Chemical Co., St. Louis Mo.). Four hours later the animals were euthanized and the pleural cavities lavaged with ice cold saline. The lavage fluid was then added to two volumes of ice cold methanol (final methanol concentration 66%) to lyse cells and precipitate protein. Eicosanoids were determined by EIA as described above.

[2] = target: T1, recombinant human Cox-1 (r-hu Cox1) (Homo sapiens, UniProt P23219); test: Recombinant human PGHS-1 enzyme assay (RHUCX1); format: biochemical; conditions: 100 μM; for inhibition at 100 µM: read-out: RHUCX1 % Inh. at Dose
T1 construct: made in house; host or cells: baculovirus/Sf9 insect cells (microsomes)
T1 sequence (P23219 24-599): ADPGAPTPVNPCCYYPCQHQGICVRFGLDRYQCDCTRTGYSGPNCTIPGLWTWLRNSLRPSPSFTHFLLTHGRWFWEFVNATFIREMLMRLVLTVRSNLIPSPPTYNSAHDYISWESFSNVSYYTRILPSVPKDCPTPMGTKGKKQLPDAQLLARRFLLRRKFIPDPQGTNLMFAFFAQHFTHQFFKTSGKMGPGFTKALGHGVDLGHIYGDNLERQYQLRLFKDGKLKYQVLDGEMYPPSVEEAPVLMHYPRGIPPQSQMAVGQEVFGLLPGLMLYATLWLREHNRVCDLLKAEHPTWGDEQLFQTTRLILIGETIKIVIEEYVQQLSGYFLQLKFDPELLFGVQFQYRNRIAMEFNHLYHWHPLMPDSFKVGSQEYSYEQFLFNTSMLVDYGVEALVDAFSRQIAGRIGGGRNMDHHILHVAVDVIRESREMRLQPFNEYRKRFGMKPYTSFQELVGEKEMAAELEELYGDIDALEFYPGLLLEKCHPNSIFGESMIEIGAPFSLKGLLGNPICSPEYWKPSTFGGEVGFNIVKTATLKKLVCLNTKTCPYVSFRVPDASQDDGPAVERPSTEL
Method in brief: (§3)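 PGE2 by EIA (optical density) → % inhibition vs control-group mean → IC50 from linear regression.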

[3] = target: T2, Human Whole Platelet Cyclooxygenase-1 (Homo sapiens, UniProt P23219); test: Human Whole Platelet Cyclooxygenase-1 assay (HWPX); format: cell-based; conditions: for IC50: read-out: HWPX IC50 (parenthetical value)
T2 construct: from tissue; host or cells: human blood: isolated platelets (A4) or heparinised whole blood (A9)
T2 sequence (P23219 24-599): as above
Method in brief: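 Thromboxane production was measured with a commercial kit after stimulation of washed human platelets (ACD-anticoagulated volunteer blood) by 8.8 μM final A23187 for 10 min. Test compounds were added 10 min before stimulus; cold 6 mM EDTA terminated the reaction.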

[4] = test system: carrageenan induced paw edema; test: Carrageenan induced paw edema (CPE) in rats; format: in vivo; conditions: 10 mpk oral, rat, 3 hours after carrageenan; for inhibition in vivo at 10 mg/kg: read-out: CPE % Inhib. @ 10 mpk
Experimental: as §1, §2
Hingpaw edema was […] in male rats as described by Winter et al., Proc. Soc. Exp. Biol. Med., 1962, 111, 544. Briefly, male Sprague-Dawley rats weighing between 170 and 190 g were administered test compounds orally 1 hour prior to the subplantar injection of 0.1 ml of 1% sodium carrageenan (lambda carrageenan, Sigma Chemical Co., St Louis, Mo.) into the right hindpaw. Right paw volumes (ml) were measured immediately following injection of carrageenan for baseline volume measurements using a Buxco plethysmograph (Buxco Electronics, Inc., Troy, N.Y.). Three hours after the injection of carrageenan, right paws were remeasured and paw edema calculated for each rat by subtracting the zero time reading from the 3 hour reading. Data are reported as mean percent inhibition +/−SEM. Statistical significance of results was analyzed by Dunnetts multiple comparison test where p<0.05 was considered statistically significant.

[5] = target: T3, recombinant human Cox-2 (r-hu Cox-2) (Homo sapiens, UniProt P35354); test: Recombinant human PGHS-2 enzyme assay (RHUCX2); format: biochemical; conditions: for inhibition at 0.1 µM / inhibition at 1 µM / inhibition at 10 µM: read-out: RHUCX2 % Inh. at Dose; for IC50: read-out: RHUCX2 IC50 (parenthetical value)
T3 construct: made in house; host or cells: baculovirus/Sf9 insect cells (microsomes)
T3 sequence (P35354 18-604): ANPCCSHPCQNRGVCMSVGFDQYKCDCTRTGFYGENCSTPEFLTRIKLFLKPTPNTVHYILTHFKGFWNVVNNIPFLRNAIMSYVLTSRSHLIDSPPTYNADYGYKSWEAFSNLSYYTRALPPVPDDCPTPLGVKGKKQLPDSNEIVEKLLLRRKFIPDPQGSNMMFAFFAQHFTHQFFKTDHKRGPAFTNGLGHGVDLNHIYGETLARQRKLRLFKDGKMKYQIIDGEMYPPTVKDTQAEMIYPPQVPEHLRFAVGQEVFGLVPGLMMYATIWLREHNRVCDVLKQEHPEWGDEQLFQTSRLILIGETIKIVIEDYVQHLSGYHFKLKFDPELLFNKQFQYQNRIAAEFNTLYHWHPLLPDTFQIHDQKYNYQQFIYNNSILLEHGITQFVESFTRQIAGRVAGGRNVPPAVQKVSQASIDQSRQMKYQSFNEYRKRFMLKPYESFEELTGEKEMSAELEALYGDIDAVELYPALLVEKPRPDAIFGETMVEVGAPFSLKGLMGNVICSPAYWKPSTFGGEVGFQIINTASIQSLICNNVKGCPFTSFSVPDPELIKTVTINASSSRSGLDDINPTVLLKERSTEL
Method in brief: as §3

[6] = test system: air pouch prostaglandin biosynthesis (Cox-2); test: Carrageenan induced air pouch prostaglandin biosynthesis model (CAP); format: in vivo, rat; conditions: 3 mpk, rat
Method in brief: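 Male Sprague Dawley rats with dorsal air pouches (20 mL air day 0, 10 mL day 3) received 0.2% lambda carrageenan in saline into the pouch on day 7. Compounds dosed at 0.1 to 10 mg/kg 30 min before carrageenan; pouch lavaged 4 h later, prostaglandins measured by EIA. Percent inhibition versus control mean; ED50 by linear regression.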

[7] = target: T4, human amnionic whole cell cyclooxygenase-2 (WISH cells) (Homo sapiens, UniProt P35354); test: IL-1β induced PGE2 production in WISH cells; format: cell-based; conditions: read-out: Wish IC50 (parenthetical value)
T4 construct: endogenous in cells; host or cells: human amnionic WISH cells, induced with IL-1beta
T4 sequence (P35354 18-604): T3 sequence (P35354 18-604)
Method in brief: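 PGE2 was quantified by enzyme immunoassay (optical density read) against standards made up in the matching medium. WISH cells at 80% confluence, washed and placed in serum-free Neuman-Tytell medium, received 5 ng/ml IL-1β plus test compound or DMSO vehicle (0.01% v/v).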

[8] = read-out: HWPX % Inhib. at Dose

Compound	inhibition in vivo at 10 mg/kg [1] [%]	inhibition at 100 µM [2] [%]	melting point [°C]	inhibition in vivo at 10 mg/kg [4] [%]	inhibition at 1 µM ([5]; 1 μM) [%]	IC50 [5] [nM]	IC50 [7] [nM]	further results
CS(=O)(=O)c1ccc(-c2cnn(Cc3ccccc3)c(=O)c2-c2ccc(F)cc2)cc1 [Example 10, 2-Benzyl-4-(4-fluorophenyl)-5-[4-(methylsulfonyl)phenyl]-3(2H)-pyridazinone]	44	2	101 to 103	–	–	–	–	IC50 [3]: 4100 nM
CS(=O)(=O)c1ccc(-c2cnn(-c3ccccc3)c(=O)c2-c2ccc(F)cc2)cc1 [Example 12, 2-Phenyl-4-(4-fluorophenyl)-5-[4-(methylsulfonyl)phenyl]-3(2H)-pyridazinone]	42	0	219 to 220	25	77	–	–	inhibition at 0.1 µM ([5]; 0.1 μM): 9%; inhibition at 10 µM [5]: 97%
CS(=O)(=O)c1ccc(-c2cnn(CC(F)(F)F)c(=O)c2-c2ccc(F)cc2)cc1 [Example 34, 2-(2,2,2-Trifluoroethyl)-4-(4-fluorophenyl)-5-[4-(methylsulfonyl)-phenyl]-3(2H)-pyridazinone]	36	16	177 to 179	31	–	920	–	–
CS(=O)(=O)c1ccc(-c2cnn(CC(F)(F)F)c(=O)c2-c2ccc(F)c(Cl)c2)cc1 [Example 54, 2-(2,2,2-Trifluoroethyl)-4-(3-chloro-4-fluorophenyl)-5-[4-(methylsulfonyl)phenyl]-3(2H)-pyridazinone]	31	0	165 to 166	30	95	–	–	inhibition at 0.1 µM ([5]; 0.1 μM): 58%
CS(=O)(=O)c1ccc(-c2cnn(-c3ccc(F)cc3)c(=O)c2-c2ccc(F)cc2)cc1 [Example 62, 2,4-Bis(4-fluorophenyl)-5-[4-(methylsulfonyl)phenyl]-3(2H)-pyridazinone]	57	6	168 to 169	21	–	624	–	–
CCCc1ccc(-c2c(-c3ccc(S(C)(=O)=O)cc3)cnn(CC(F)(F)F)c2=O)cc1 [Example 66, 2-(2,2,2-Trifluoroethyl)-4-(4-n-proylphenl)-5-[4-(methylsulfonyl)phenyl]-3(2H)-pyridazinone]	–	–	–	–	–	–	–	CIP % Inhib. @ 10 mpk [1]: 59%; CPE % Inhib. @ 10 mpk [4]: 7%; CAP % Inhib. @ 3 mpk [6]: 0%
CS(=O)(=O)c1ccc(-c2cnn(CC(F)(F)F)c(=O)c2-c2ccc(Cl)c(F)c2)cc1 [Example 67]	–	–	–	–	–	–	–	CIP % Inhib. ([1]; 3 mpk oral): 40 @ 3 mpk %
NS(=O)(=O)c1ccc(-c2cnn(CC(F)(F)F)c(=O)c2-c2ccc(F)cc2)cc1 [Example 68, 2-(2,2,2-Trifluoroethyl)-4-(4-fluorophenyl)-5-[4-(aminosulfonyl)phenyl]-3(2H)-pyridazinone]	64	32	193 to 195	40.3	–	297	–	–
CC(C)Oc1c(-c2ccc(S(C)(=O)=O)cc2)cnn(Cc2ccccc2)c1=O [Example 74, 2-Benzyl-4-(2-propoxy)-5-[4-(methylsulfonyl)phenyl]-3(2H)-pyridazinone]	46.5	11	109 to 111	18	–	–	–	–
C[S+]([O-])c1ccc(-c2cnn(CC(F)(F)F)c(=O)c2-c2ccc(Cl)cc2)cc1 (centres unmarked) [Example 77]	51	35	154 to 155	21	39	–	126	inhibition at 10 µM [5]: 82%; IC50 [3]: 8800 nM
CS(=O)(=O)c1ccc(-c2cnn(C3CCCCC3)c(=O)c2-c2ccc(F)cc2)cc1 [Example 120, 2-Cyclohexyl-4-(4-fluorophenyl)-5-[4-(methylsulfonyl)phenyl]-3(2H)-pyridazinone]	5	15	169 to 171	11	97	–	25	inhibition at 0.1 µM ([5]; 0.1 μM): 45%; inhibition at 1 µM [3, 8]: 58%; inhibition at 3 µM ([3]; 3 μM, read-out: HWPX % Inhib. at Dose): 74%
CS(=O)(=O)c1ccc(-c2cnn(C3CCCC3)c(=O)c2-c2ccc(F)cc2)cc1 [Example 121, 2-Cyclopentyl-4-(4-fluorphenyl)-5-[4-(methylsulfonyl)phenyl]-3(2H)-pyridazinone]	–	–	–	–	–	5	41	CIP % Inhib. @ 10 mpk [1]: 19%; RHUCX1 % Inh. at Dose (μM) [2]: 0 @ 100%; CPE % Inhib. @ 10 mpk [4]: 8%
CS(=O)(=O)c1ccc(-c2cnn(-c3ccc(Cl)cc3)c(=O)c2-c2ccc(F)cc2)cc1 [Example 160, 2-(4-Chlorophenyl)-4-(4-fluorophenyl)-5-[4-(methylsulfonyl)phenyl]-3(2H)-pyridazinone]	56	–	214 to 216	35	–	–	30	IC50 [3]: 7200 nM
CS(=O)(=O)c1ccc(-c2cnn(-c3cccc(Br)c3)c(=O)c2-c2ccc(F)cc2)cc1 [Example 166, 2-(3-Bromophenyl)-4-(4-fluorophenyl)-5-[4-(methylsulfonyl)phenyl]-3(2H)-pyridazinone]	40	3	210 to 212	–	–	199	20	inhibition in vivo at 3 mg/kg ([6]; 4 h, read-out: CAP % Inhib. @ 3 mpk): 59%; IC50 [3]: 9400 nM
Cc1ccc(-n2ncc(-c3ccc(S(C)(=O)=O)cc3)c(-c3ccc(F)cc3)c2=O)s1 [Example 168]	0	0	219 to 224	6	85	–	9	inhibition at 0.1 µM ([5]; 0.1 μM): 93%; inhibition at 1 µM [3, 8]: 47%
CS(=O)(=O)c1ccc(-c2cnn(-c3cc(F)cc(F)c3)c(=O)c2-c2ccc(F)cc2)cc1 [Example 180]	–	–	–	–	–	–	–	CIP % Inhib. @ 10 mpk [1]: 34.5%; RHUCX1 % Inh. at Dose (μM) [2]: 8 @ 100%; RHUCX2 % Inh. at Dose (μM) ([5]; 0.1 μM): 48 @ 0.1%; RHUCX2 % Inh. at Dose (μM) ([5]; 1 μM): 78 @ 1%
